Active and inactive are the calls of the source. Cut-off read from the data, not from the text of the source: actives have a measured IC50 and inactives only a lower limit.

In the assay the target is Envelope glycoprotein gp160 (Human immunodeficiency virus 1, UniProt Q6QLK5). Nature of the assay: inhibitors of HIV fusion peptide binding, primary screen, biochemical, uHTS, fluorescence dequenching (AID 1986).
Sequence of Envelope glycoprotein gp160 (Q6QLK5 whole entry, the tested form may be a part): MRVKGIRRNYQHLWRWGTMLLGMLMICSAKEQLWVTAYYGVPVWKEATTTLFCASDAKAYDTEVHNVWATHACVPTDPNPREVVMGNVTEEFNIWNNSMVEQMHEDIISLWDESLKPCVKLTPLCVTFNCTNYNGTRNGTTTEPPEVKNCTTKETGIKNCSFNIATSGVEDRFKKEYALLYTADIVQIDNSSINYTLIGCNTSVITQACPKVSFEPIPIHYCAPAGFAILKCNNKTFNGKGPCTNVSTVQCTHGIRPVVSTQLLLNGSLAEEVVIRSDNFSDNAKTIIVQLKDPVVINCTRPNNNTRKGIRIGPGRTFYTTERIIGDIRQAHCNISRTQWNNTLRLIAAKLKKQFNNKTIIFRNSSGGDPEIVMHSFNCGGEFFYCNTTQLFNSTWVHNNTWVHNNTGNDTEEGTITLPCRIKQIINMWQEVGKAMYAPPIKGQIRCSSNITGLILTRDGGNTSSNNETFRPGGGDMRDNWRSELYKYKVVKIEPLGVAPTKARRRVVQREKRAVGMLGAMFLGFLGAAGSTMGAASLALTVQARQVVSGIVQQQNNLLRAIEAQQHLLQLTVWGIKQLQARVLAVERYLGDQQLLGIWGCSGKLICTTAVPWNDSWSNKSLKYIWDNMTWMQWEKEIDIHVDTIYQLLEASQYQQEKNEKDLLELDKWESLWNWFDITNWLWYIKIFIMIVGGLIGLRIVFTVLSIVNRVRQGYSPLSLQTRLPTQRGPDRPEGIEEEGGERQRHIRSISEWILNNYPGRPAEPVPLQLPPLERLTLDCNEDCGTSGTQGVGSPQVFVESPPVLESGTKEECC
As a reminder, the IC50 is the concentration at which inhibition is half-maximal. In the case of `O=S(=O)(Nc1nc2ccccc2nc1Nc1cccc(S(=O)(=O)N2CCCCC2)c1)c1ccccc1`, the IC50 was 13.3 µM (active).
In the case of `COc1ccc(C(=O)/C=C/c2ccc(OCc3ccccc3)cc2)cc1CSCC(=O)O`, the IC50 is 25.7 µM (active).
Regarding `Cc1cc(/C=C2/C(=N)N3C(=NC2=O)SN=C3S(C)(=O)=O)c(C)n1-c1ccccc1`, the IC50 was 19.1 µM (active).

Values taken from ChEMBL document CHEMBL1201862, “PubChem BioAssay data set” (2004).
